Source: patent US20050282818A1, “Ubiquitin ligase inhibitors” (Rigel Pharmaceuticals, Inc., priority 2004, published 2005)

Assays:
TRAF6/Uev1A/Ubc13 = target: T1, TRAF6/Uev1A/Ubc13 (Homo sapiens, UniProt Q9Y4K3); test: TRAF6/Uev1A/Ubc13 plate-based ubiquitin ligase assay; assay type: biochemical
T1 sequence (Q9Y4K3 1-522): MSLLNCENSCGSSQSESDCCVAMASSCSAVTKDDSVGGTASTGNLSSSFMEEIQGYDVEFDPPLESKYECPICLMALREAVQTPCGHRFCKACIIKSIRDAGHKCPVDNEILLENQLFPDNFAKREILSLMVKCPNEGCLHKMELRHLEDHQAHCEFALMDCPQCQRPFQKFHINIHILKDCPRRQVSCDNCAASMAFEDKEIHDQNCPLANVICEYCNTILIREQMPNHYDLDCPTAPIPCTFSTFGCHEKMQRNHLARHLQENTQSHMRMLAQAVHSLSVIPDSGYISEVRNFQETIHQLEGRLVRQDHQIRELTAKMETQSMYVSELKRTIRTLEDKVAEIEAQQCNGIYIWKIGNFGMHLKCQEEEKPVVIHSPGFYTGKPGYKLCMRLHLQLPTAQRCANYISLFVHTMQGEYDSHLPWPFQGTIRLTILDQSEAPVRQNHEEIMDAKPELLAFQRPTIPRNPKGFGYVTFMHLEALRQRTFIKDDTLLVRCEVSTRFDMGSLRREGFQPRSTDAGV
Summary of the method: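 Ligase activity was read as luminescence from anti-Flag/HRP detection of Flag-ubiquitin bound to casein-blocked Ni-plates alongside His-ubiquitin after a 1 h room-temperature reaction. Buffer: 62.5 mM Tris pH 7.5, 6.25 mM MgCl2, 1.0 mM DTT, 2 μM ATP; E1, Uev1a/Ubc13 and TRAF6 added last to start. IC50s derived across compound concentrations.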

ROC1/CUL1 = target: T2, ROC1/CUL1 (Homo sapiens, UniProt P62877+Q13616); test: ROC1/CUL1 ubiquitin ligase assay (SCF assay); assay type: biochemical
T2 construct: made in house
T2 sequence (P62877 whole entry): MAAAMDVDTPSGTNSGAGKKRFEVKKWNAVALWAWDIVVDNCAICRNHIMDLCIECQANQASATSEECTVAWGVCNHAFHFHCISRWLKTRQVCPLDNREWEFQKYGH
T2 sequence (Q13616 whole entry): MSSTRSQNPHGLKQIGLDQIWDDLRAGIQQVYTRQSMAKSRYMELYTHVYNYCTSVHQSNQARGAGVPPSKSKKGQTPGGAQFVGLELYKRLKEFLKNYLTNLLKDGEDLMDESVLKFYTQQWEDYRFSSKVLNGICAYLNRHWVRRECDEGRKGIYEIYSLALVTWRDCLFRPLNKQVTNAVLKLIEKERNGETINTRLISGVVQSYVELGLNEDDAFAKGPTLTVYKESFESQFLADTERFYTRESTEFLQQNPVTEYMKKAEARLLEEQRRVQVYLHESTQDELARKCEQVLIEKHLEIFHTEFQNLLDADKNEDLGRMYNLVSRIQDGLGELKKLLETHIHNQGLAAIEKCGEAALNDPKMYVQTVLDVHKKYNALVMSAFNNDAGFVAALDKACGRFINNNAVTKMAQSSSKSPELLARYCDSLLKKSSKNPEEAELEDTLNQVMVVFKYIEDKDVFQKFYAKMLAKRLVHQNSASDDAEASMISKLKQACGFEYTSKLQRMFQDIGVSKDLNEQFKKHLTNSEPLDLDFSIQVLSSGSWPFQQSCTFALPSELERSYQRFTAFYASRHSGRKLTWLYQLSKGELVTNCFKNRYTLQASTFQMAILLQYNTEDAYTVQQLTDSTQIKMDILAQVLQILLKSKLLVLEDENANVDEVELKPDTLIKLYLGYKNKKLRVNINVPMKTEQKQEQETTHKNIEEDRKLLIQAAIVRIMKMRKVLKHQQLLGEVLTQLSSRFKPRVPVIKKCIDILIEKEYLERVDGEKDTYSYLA
Description: Inhibition of ubiquitin ligase activity of E1+E2+E3 was measured using the protocol as described in WO 01/75145 with E3 as the ROC1/CUL1, ROC1/CUL2, or ROC2/CUL5 complex.
The wells of nickel-substrate 96-well plates (Pierce Chemical) are blocked with 100 μl of 1 casein/phosphate buffered saline (PBS) for 1 hour at room temperature, then washed with 200 μl of PBST (0.1% Tween-20 in PBS) 3 times. To each well is added the following Flag-ubiquitin (see above) reaction solution: 62.5 mM Tris pH 7.5, 6.25 mm MgCl2, 0.75 mM DTT, 2.5 mM ATP, 2.5 mM NaF1, 2.5 nM Okadaic acid, 100 ng Flag-ubiquitin (made as described above).
The buffer solution is brought to a final volume of 80 μl with Milipore-filtered water, followed by the addition of 10 μl DMSO.
To the above solution is then added 10 μl of ubiquitination enzymes in 20 mM Tris buffer, pH 7.5, and 5% glycerol. E2-Ubch5c and E3-His ROC1/Cul1, ROC1/CUL2, and ROC2/CUL5 are made as described in WO 01/75145. E1 is obtained commercially (Affiniti Research Products, Exeter, U. K.). The following amounts of each enzyme are used for these assays: 5 ng/well of E1; […] E2; and 100 ng/well His-E3. Varying amounts of compounds according to the invention are added and the reaction allowed to proceed at room temperature for 1 hour.
Following the ubiquitination reaction, the wells are washed with 200 μl of PBST 3 times. For measurement of the enzyme-bound ubiquitin, 100 gel of Mouse anti-Flag (1:10,000) and anti-Mouse Ig-HRP (1:15, 000) in PBST are added to each well and allowed to incubate at room temperature for 1 hour. The wells are then washed with 200 μl of PBST 3 times, followed by the addition of 100 μl of luminol substrate (1/5 dilution). Luminescence for each well is then measured using a fluorimeter.
Table 2 below illustrates the inhibitory activity of the compounds of the invention determined by the TRAF6/Uev1A/Ubc13 assay as well as in the ICAM, APC and the ROC1/CUL1 Ubiquitin Ligase Assay (SCF Assay). The IC50 values were determined using a various concentrations of the compounds.

H1299 cells = test: Cell proliferation PAD assay, H1299; assay type: cell-based; conditions: Homo sapiens, NCI-H1299, 3pt, 48 hours, read-out: H1299 3pt
Summary of the method: (§1)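 Cells plated at 2,000/well; compounds added 24 h later as 6.3-fold dilutions from a 10 mM master stock, diluted 500-fold into wells, in duplicate. After 48 h at 37 °C, 5% CO2, cells were formamide-fixed, DAPI-stained and imaged to count live, apoptotic and dead cells.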

A549 cells = test: Cell proliferation PAD assay, A549; assay type: cell-based; conditions: Homo sapiens, 3pt, 48 hours, read-out: A549 3pt
Summary of the method: as §1

[1] = system: ICAM-1 expression in A549 cells; test: ICAM assay (IL-1 induced ICAM-1/CD54 expression in A549 cells); assay type: cell-based, human; conditions: Homo sapiens, A549, ICAM assay
Summary of the method: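 A549 cells, 10,000/well, preincubated with compound 1 h at 37° C, then stimulated with IL-1 (4 μl of 25 ng/ml added) for 4 h. Surface ICAM-1 detected by anti-CD54 plus anti-mouse IgG staining for 1 h, luminescent read-out after PBS washes.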

APC11/APC2 = APC11/APC2 (Homo sapiens, UniProt Q9NYG5+Q9UJX6); test: APC-11/APC-2 ligase assay (APC auto ubiquitination); assay type: biochemical; conditions: APC assay
APC11/APC2, sequence (Q9NYG5 whole entry): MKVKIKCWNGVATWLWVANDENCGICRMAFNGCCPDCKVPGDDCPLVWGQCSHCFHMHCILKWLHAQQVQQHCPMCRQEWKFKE
APC11/APC2, sequence (Q9UJX6 whole entry): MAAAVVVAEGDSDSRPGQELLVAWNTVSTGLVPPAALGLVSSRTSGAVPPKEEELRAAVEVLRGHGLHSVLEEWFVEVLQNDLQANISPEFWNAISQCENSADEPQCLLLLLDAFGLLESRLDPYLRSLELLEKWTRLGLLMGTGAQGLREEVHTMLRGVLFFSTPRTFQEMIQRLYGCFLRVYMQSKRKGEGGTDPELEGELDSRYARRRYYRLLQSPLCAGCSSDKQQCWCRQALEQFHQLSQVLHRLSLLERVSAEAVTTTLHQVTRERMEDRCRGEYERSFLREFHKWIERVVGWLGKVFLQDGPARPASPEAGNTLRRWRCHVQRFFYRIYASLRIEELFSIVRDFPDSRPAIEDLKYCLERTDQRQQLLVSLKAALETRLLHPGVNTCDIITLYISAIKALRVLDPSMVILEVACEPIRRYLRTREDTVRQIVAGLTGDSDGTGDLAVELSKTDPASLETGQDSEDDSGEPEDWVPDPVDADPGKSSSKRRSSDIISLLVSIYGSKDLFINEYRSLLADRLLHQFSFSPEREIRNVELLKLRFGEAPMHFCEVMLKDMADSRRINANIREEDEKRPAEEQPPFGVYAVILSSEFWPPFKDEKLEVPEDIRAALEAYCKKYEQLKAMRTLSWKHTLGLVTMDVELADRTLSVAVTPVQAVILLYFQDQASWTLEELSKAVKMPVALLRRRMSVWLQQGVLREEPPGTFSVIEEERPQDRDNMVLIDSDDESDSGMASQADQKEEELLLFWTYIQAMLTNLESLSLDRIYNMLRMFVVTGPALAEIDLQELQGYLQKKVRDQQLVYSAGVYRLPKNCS
Summary of the method: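 His-tagged APC was captured on nickel plates with human E1 (5 ng/well), UbcH5c (20 ng/well), APC (100 ng/well) and Flag-ubiquitin (100 ng/well) in a Tris pH 7.6 reaction buffer containing 2.5 mM ATP, for 1 hour at room temperature. Read-out was anti-Flag/HRP chemiluminescence. IC50 was set against a DMSO control, typically from 6 or 8 concentrations.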

Compound | IC50 (TRAF6/Uev1A/Ubc13) [µM] | IC50 (ROC1/CUL1) [µM] | IC50 (H1299 cells) [µM] | IC50 (A549 cells) [µM] | IC50 [1] [µM] | IC50 (APC11/APC2) [µM]
CC(=O)OCCCNc1cc(Sc2nnc(C)s2)c2nonc2c1[N+](=O)[O-] [compound 133, 3-({7-[(5-methyl-1,3,4-thiadiazol-2-yl)thio]-4-nitro-2,1,3-benzoxadiazol-5-yl}amino)propyl acetate] | ≥ 20 | ≥ 20 | – | – | – | –
CCCSc1cc(NCCCOC(C)=O)c([N+](=O)[O-])c2nonc12 [compound 134, 4-{[4-nitro-7-(propylthio)-2,1,3-benzoxadiazol-5-yl]amino}propyl acetate] | ≥ 20 | ≥ 20 | – | – | – | –
CC(=O)OCCCNc1cc(SC2CCCCC2)c2nonc2c1[N+](=O)[O-] [compound 135, 3-{[7-(cyclohexylthio)-4-nitro-2,1,3-benzoxadiazol-5-yl]amino}propyl acetate] | ≥ 20 | ≥ 20 | – | – | – | –
CC(=O)OCCCNc1cc(SCc2ccco2)c2nonc2c1[N+](=O)[O-] [compound 136, 3-({7-[(2-furylmethyl)thio]-4-nitro-2,1,3-benzoxadiazol-5-yl}amino)propyl acetate] | ≥ 20 | ≥ 20 | – | – | – | –
CCOC(=O)CSc1cc(NCCCOC(C)=O)c([N+](=O)[O-])c2nonc12 [compound 137, ethyl [(6-{[3-(acetyloxy)propyl]amino}-7-nitro-2,1,3-benzoxadiazol-4-yl)thio]acetate] | ≥ 20 | ≥ 20 | – | – | – | –
Cc1cccc(N2CCN(S(=O)(=O)c3ccc(Sc4cccc5cccnc45)c4nonc34)CC2)n1 [compound 196, 8-[(7-{[4-(6-methylpyndin-2-yl)piperazin-1-yl]sulfonyl}-2,1,3-benzoxadiazol-4-yl)thio]quinoline] | 1 to 20 | ≥ 20 | ≥ 20 | ≥ 20 | – | –
CC1CC(C)CN(S(=O)(=O)c2ccc(Sc3cccc4cccnc34)c3nonc23)C1 (stereo not drawn) [compound 197, 8-({7-[(3,5-dimethylpipendin-1-yl)sulfonyl]-2,1,3-benzoxadiazol-4-yl}thio)quinoline] | 1 to 20 | ≥ 20 | 1 to 20 | 1 to 20 | – | –
N#Cc1ccc(N2CCN(c3ccc4nonc4c3S(=O)(=O)N3CCN(c4ccc(C#N)cn4)CC3)CC2)nc1 [compound 210, 6-[4-({5-[4-(5-cyanopyridin-2-yl)piperazin-1-yl]-2,1,3-benzoxadiazol-4-yl}sulfonyl)piperazin-1-yl]nicotinonitrile] | ≥ 20 | ≥ 20 | 1 to 20 | ≥ 20 | – | –
N#Cc1ccc(N2CCN(S(=O)(=O)c3c(Sc4cccc5cccnc45)ccc4nonc34)CC2)nc1 [compound 212, 6-(4-{[5-(quinolin-8-ylthio)-2,1,3-benzoxadiazol-4-yl]sulfonyl}piperazin-1-yl)nicotinonitrile] | 1 to 20 | ≥ 20 | 1 to 20 | 1 to 20 | – | –
CC1CN(S(=O)(=O)c2c(Sc3cccc4cccnc34)ccc3nonc23)CC(C)O1 (stereo not drawn) [compound 216, 8-({4-[(2,6-dimethylmorpholin-4-yl)sulfonyl]-2,1,3-benzoxadiazol-5-yl}thio)quinoline] | 1 to 20 | ≥ 20 | – | – | – | –
O=[N+]([O-])c1ccc(Nc2ccc3cn[nH]c3c2)c2nonc12 [compound 223, N-1H-indazol-6-yl-7-nitro-2,1,3-benzoxadiazol-4-amine] | 1 to 20 | ≥ 20 | – | – | – | –
COC(=O)c1ccc(NS(=O)(=O)c2ccc(Sc3ccncc3)c3nonc23)cc1 [compound 256, methyl 4-({[7-(pyridin-4-ylthio)-2,1,3-benzoxadiazol-4-yl]sulfonyl}amino)benzoate] | ≥ 20 | ≥ 20 | – | – | – | –
O=S(=O)(Nc1ccc(F)c(F)c1)c1ccc(Nc2ccc(F)c(F)c2)c2nonc12 [compound 264, N-(3,4-difluorophenyl)-7-[(3,4-difluorophenyl)amino]-2,1,3-benzoxadiazole-4-sulfonamide] | ≥ 20 | ≥ 20 | – | – | – | –
CN1CCN(S(=O)(=O)c2ccc(Sc3ccc(O)cc3)c3nonc23)CC1 [compound 266, 4-({7-[(4-methylpiperazin-1-yl)sulfonyl]-2,1,3-benzoxadiazol-4-yl}thio)phenol] | ≥ 20 | ≥ 20 | – | – | – | –
CN1CCN(S(=O)(=O)c2ccc(Sc3cccc4ccccc34)c3nonc23)CC1 [compound 267, 4-[(4-methylpiperazin-1-yl)sulfonyl]-7-(1-naphthylthio)-2,1,3-benzoxadiazole] | ≥ 20 | ≥ 20 | – | – | – | –
COc1ccccc1Sc1ccc(S(=O)(=O)N2CCN(C)CC2)c2nonc12 [compound 270, 4-[(2-methoxyphenyl)thio]-7-[(4-methylpiperazin-1-yl)sulfonyl]-2,1,3-benzoxadiazole] | ≥ 20 | ≥ 20 | – | – | – | –
O=C(Nc1ccc(N2CCN(c3ncc(C(F)(F)F)cc3Cl)CC2)c2nonc12)c1cccs1 [compound 281, N-(7-{4-[3-chloro-5-(trifluoromethyl)pyridin-2-yl]piperazin-1-yl}-2,1,3-benzoxadiazol-4-yl)thiophene-2-carboxamide] | 1 to 20 | 1 to 20 | – | – | – | –
O=[N+]([O-])c1ccc(N2CCC(Oc3ccccn3)CC2)c2nonc12 [compound 287, 4-nitro-7-[4-(pyridin-2-yloxy)piperidin-1-yl]-2,1,3-benzoxadiazole] | ≥ 20 | ≥ 20 | – | – | – | –
O=[N+]([O-])c1ccc(N2CCC(Sc3ccccn3)CC2)c2nonc12 [compound 288, 4-nitro-7-[4-(pyridin-2-ylthio)piperidin-1-yl]-2,1,3-benzoxadiazole] | ≥ 20 | ≥ 20 | – | – | – | –
O=[N+]([O-])c1cc(-c2cccc3cccnc23)c2nonc2c1 [compound 483, 6-nitro-4-(quinolin-8-yl)-2,1,3-benzoxadiazole] | ≥ 20 | – | – | – | ≥ 20 | ≥ 20
Cc1ccc(C)c(-c2cc([N+](=O)[O-])cc3nonc23)c1 [compound 484, 4-(2,5-dimethylphenyl)-6-nitro-2,1,3-benzoxadiazole] | ≥ 20 | – | – | – | ≥ 20 | ≥ 20
O=S(=O)(c1ccc(Sc2ccc3ccccc3n2)c2nonc12)N1CCC(O)(c2ccc(Cl)cc2)CC1 [compound 485, 4-(4-chlorophenyl)-1-({7-(quinolin-2ylthio)-2,1,3-benzoxadiazol-4-yl}sulfonyl)piperidin-4-ol] | ≥ 20 | ≥ 20 | – | – | – | –
